Assay results published in ChEMBL document CHEMBL1201862, “PubChem BioAssay data set” (2004).
The source made the active and inactive calls.

Legend:
[1] = molecular target: T1, Short transient receptor potential channel 4 (Mus musculus, UniProt Q9QUQ5); assay: mouse TRPC4 channel activators, dose response, cell-based, HEK293 TRPC4/mu-opioid, Fluo-4 calcium (AID 434937); format: functional
T1 sequence (Q9QUQ5 whole entry): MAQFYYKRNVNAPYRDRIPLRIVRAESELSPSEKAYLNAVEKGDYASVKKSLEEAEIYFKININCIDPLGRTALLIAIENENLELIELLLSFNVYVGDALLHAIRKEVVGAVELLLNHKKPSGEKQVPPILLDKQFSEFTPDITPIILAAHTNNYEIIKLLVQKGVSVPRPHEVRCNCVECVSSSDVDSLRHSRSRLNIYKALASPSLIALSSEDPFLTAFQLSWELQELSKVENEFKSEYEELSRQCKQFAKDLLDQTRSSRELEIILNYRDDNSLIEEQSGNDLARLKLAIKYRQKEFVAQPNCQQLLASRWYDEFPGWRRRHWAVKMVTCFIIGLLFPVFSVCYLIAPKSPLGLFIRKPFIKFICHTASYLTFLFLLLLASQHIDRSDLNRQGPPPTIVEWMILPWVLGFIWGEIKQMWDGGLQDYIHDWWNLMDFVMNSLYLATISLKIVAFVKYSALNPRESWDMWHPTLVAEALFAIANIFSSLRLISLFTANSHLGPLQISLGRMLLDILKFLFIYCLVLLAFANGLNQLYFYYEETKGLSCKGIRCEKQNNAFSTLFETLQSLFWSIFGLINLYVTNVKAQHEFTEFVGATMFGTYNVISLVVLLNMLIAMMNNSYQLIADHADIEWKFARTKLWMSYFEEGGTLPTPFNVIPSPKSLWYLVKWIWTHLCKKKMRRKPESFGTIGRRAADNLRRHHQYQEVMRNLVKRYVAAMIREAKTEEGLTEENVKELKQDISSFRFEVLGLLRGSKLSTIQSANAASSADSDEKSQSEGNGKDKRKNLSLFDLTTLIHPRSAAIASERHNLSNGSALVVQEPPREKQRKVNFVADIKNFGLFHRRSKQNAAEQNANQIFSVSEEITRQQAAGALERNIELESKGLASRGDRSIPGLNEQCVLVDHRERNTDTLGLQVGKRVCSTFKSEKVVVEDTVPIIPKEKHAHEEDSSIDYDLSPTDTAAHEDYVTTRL

[2] = molecular target: T2, Apoptotic protease-activating factor 1 (Homo sapiens, UniProt O14727); format: functional
T2 sequence (O14727 whole entry): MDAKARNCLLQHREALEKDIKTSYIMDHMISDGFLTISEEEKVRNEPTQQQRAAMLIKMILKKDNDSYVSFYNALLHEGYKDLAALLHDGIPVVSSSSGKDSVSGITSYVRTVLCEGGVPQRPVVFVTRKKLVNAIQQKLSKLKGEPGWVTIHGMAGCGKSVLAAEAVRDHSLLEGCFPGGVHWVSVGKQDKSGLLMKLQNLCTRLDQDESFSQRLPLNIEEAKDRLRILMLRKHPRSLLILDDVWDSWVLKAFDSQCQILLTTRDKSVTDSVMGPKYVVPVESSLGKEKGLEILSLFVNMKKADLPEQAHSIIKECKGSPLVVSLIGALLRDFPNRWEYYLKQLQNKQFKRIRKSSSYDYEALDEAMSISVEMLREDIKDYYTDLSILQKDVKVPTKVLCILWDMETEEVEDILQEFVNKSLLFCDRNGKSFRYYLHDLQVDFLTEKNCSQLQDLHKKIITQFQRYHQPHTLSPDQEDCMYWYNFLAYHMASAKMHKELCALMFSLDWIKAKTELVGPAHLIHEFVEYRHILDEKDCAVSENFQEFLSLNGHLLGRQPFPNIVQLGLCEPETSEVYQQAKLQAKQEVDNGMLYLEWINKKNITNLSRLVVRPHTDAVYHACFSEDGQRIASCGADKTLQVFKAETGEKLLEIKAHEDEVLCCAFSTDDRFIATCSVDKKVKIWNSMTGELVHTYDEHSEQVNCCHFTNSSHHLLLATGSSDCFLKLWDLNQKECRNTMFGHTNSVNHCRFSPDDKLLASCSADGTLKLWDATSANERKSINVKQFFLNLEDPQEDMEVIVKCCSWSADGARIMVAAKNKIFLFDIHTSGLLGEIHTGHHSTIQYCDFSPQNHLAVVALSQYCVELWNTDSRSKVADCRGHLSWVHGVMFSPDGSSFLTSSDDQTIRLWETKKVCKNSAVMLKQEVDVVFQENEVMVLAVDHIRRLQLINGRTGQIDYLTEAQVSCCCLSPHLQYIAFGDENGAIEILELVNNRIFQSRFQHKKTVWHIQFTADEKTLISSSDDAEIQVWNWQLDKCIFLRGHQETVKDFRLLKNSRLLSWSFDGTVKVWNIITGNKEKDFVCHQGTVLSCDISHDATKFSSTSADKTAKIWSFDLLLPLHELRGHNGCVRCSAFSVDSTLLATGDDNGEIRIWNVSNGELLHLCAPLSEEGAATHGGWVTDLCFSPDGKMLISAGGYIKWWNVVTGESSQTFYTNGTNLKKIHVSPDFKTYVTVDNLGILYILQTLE

[3] = molecular target: Ras and Rab interactor 1/Tyrosine-protein kinase ABL1 (Homo sapiens, UniProt P00519+Q13671); format: functional;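 also: biochemical TR-FRET dose-response test measuring inhibition of binding between Rin1 and Abl proteins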
Sequence of Ras and Rab interactor 1/Tyrosine-protein kinase ABL1 (P00519 whole entry): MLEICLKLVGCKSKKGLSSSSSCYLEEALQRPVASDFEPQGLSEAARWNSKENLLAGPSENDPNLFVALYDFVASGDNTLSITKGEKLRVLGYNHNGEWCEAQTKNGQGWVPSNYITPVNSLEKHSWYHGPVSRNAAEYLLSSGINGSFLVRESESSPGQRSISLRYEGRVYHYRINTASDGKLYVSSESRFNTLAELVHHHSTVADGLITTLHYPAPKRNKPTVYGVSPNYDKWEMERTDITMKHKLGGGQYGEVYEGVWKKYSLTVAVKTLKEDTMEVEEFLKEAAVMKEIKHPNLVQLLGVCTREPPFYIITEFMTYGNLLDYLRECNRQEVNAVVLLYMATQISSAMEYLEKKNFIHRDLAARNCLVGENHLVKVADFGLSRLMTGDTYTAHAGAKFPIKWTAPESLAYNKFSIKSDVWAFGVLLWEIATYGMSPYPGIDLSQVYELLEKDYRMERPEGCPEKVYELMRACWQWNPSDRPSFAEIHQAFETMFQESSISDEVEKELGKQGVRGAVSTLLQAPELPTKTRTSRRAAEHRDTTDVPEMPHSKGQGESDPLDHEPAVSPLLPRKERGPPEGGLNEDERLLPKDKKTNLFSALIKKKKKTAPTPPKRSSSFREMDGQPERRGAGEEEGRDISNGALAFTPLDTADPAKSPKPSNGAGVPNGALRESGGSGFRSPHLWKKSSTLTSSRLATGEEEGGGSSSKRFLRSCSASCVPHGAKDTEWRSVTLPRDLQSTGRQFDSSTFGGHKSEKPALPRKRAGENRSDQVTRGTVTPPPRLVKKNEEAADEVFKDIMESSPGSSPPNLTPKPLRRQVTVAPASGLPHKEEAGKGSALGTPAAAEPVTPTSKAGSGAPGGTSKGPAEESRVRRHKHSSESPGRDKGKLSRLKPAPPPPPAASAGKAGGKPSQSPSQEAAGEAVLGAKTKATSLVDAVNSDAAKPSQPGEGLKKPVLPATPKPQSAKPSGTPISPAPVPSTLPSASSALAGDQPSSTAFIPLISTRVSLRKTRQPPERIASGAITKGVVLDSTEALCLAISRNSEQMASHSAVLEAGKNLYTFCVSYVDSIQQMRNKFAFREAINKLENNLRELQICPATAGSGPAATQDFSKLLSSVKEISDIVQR
Sequence of Ras and Rab interactor 1/Tyrosine-protein kinase ABL1 (Q13671 whole entry): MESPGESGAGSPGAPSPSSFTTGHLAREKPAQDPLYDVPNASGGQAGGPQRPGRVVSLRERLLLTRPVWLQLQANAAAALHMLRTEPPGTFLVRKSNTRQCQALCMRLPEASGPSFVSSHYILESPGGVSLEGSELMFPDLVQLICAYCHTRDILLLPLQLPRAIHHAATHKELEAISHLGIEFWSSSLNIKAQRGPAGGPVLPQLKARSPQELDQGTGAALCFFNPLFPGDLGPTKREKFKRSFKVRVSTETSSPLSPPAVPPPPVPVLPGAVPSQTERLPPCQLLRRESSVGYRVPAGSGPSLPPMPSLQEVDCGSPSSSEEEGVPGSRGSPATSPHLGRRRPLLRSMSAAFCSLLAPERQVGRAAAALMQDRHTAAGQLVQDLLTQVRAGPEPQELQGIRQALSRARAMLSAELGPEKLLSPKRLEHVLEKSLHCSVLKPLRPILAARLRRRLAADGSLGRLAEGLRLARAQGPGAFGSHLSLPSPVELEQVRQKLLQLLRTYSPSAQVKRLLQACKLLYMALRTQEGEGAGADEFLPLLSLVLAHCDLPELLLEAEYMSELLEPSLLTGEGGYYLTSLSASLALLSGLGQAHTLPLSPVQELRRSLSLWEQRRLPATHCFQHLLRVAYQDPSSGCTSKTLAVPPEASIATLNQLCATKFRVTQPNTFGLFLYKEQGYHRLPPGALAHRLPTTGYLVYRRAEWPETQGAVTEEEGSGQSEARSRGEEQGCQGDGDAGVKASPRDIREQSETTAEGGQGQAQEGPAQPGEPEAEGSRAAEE

[4] = molecular target: T3, Sentrin-specific protease 7 (Homo sapiens, UniProt Q9BQF6); format: functional;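 also: Luminescence-based dose-response confirmation of ultra-high-throughput screening hits, measuring inhibition of SENP7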
T3 sequence (Q9BQF6 whole entry): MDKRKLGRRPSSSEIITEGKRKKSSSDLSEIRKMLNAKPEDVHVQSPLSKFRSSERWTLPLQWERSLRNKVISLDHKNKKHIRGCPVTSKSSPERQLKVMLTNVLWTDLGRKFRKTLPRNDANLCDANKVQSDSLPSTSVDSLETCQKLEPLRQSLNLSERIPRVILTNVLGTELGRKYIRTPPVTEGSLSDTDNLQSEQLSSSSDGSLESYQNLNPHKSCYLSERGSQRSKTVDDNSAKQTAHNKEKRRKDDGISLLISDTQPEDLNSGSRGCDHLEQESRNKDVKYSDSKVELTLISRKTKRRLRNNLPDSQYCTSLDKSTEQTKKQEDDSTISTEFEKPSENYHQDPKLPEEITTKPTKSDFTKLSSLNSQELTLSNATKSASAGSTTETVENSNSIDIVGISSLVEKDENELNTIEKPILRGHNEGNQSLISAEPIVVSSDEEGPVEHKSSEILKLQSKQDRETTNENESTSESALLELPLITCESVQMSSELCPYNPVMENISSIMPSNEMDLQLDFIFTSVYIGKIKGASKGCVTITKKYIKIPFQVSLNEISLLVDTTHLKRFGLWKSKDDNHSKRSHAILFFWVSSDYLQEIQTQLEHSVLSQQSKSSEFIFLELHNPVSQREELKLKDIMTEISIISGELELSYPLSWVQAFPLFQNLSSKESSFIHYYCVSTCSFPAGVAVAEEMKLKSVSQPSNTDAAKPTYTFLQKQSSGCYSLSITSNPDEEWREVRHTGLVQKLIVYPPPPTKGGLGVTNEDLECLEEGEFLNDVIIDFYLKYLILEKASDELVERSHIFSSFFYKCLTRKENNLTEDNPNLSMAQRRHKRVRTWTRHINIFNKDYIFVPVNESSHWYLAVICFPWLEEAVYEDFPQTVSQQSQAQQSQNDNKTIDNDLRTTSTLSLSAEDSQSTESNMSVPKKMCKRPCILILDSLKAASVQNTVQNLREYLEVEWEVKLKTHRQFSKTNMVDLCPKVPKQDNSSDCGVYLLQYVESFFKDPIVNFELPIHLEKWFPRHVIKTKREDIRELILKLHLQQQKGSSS

[5] = Luminescence Cell-Based Dose Retest to Confirm Inhibitors of Cancer Stem Cells. [Related pubchem assays (depositor defined):AID2717, AID2721]; format: functional; conditions: Homo sapiens
[6] = molecular target: T4, Sentrin-specific protease 6 (Homo sapiens, UniProt Q9GZR1); format: functional;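 also: Luminescence-based dose-response confirmatory assay of SENP6 inhibition, following up an ultra-high-throughput screen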
T4 sequence (Q9GZR1 whole entry): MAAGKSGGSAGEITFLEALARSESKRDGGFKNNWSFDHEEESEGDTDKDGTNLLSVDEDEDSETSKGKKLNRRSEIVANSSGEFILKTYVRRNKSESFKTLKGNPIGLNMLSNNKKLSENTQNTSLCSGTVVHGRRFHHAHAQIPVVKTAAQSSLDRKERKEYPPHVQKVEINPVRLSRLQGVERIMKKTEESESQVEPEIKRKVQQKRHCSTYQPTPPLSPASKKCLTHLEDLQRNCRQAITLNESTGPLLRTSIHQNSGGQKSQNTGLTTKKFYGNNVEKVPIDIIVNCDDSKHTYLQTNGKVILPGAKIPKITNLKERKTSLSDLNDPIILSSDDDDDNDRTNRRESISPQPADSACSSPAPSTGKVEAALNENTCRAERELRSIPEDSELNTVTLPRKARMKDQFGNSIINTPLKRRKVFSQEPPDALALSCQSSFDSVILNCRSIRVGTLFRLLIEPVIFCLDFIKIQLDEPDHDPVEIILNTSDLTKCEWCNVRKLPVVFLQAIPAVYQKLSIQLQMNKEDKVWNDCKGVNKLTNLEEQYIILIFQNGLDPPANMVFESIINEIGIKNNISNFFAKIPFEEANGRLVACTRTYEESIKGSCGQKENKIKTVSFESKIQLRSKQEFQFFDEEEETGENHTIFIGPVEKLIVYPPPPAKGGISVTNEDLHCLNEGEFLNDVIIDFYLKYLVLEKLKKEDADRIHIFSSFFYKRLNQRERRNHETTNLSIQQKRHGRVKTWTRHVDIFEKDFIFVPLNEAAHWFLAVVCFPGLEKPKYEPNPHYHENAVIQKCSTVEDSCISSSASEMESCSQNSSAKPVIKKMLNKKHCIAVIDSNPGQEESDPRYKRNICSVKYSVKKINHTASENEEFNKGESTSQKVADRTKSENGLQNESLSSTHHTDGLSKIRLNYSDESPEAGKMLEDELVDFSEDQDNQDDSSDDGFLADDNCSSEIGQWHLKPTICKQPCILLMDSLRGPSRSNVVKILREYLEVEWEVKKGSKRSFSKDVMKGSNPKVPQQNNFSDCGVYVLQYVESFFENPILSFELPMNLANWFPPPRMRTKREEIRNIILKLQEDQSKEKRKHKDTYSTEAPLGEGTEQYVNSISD

[7] = molecular target: T5, Sentrin-specific protease 8 (Homo sapiens, UniProt Q96LD8); format: functional;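 also: luminescence read-out of SENP8 inhibition, dose-response confirmation following an ultra-high-throughput screen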
T5 sequence (Q96LD8 whole entry): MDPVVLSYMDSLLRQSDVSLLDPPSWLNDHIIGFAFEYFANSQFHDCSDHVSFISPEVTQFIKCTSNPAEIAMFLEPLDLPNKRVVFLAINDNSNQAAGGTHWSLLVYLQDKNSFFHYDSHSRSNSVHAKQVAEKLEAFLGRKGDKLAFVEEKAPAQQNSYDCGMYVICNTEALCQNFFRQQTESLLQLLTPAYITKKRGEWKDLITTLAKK

[8] = molecular target: T6, Long-chain-fatty-acid--AMP ligase FadD28 (Mycobacterium tuberculosis, UniProt P9WQ59); assay: Fluorescence polarization aasay to screen for inhibitors that compete for the binding of FadD28 to a bisubstrate Measured in Biochemical System Using Plate Reader - 2147-01_Inhibitor_Dose_CherryPick_Activity.; format: functional, Mycobacterium tuberculosis H37Rv
T6 sequence (P9WQ59 whole entry): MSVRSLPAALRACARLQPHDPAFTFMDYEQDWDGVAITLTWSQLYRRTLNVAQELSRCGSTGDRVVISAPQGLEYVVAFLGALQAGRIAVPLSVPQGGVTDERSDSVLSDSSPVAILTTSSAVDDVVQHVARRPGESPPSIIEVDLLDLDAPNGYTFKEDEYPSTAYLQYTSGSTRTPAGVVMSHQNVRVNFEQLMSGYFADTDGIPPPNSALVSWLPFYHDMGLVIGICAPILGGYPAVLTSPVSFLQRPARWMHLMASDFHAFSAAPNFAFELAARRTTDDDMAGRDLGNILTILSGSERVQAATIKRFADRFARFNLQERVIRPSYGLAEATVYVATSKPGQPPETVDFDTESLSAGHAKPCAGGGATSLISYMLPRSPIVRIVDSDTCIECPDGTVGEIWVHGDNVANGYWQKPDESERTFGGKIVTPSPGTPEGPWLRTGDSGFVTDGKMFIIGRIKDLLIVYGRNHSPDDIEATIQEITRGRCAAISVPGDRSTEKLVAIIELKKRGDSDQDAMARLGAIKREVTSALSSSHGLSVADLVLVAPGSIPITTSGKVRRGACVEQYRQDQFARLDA

With `CC1CCN(CCCNS(=O)(=O)c2cc(Br)cc3c2N(C(=O)C2CC2)CC3)CC1` the EC50 [1] was 0.299 µM (active).
For `CCCN(CC(=O)Nc1ccccc1C)C(=O)c1sc2ccccc2c1Cl`, the IC50 [2] was > 100 µM (inactive).
With `Cc1nc(N/N=C/c2ccc(O)cc2O)cc(N2CCOCC2)n1` the IC50 [3] was > 2.72 µM (active).
In the case of `CN(C)C(CNC(=O)Cc1cccc(C(F)(F)F)c1)c1ccco1` (stereo unspecified), the EC50 [1] is reported as 0.335 µM (active).
With `CN(C(=O)c1ccc(NC(=O)Cc2cccc(NC(=O)C3CCN(C(=O)C4CCCC4)CC3)c2)cc1)C1CC1` the IC50 [3] was 21.2 µM (inactive).
With `COc1cc2ccccc2cc1C(=O)Nc1ccccc1Cl` the IC50 [4] was 8.41 µM (active), the AC50 [5] was 4.58 µM (active) and the IC50 [6] was 10.2 µM (active). For the same compound, the IC50 [7] was 17.2 µM (active).
For `CC(C)(C)C(=O)[C@@H]1[C@@H]2C(=O)N(C3CCCCC3)C(=O)[C@@H]2[C@H]2c3ccccc3C=CN12`, the IC50 [2] was 10.5 µM (active).
With `Nc1nc(O)cc(NC2CCCC2)n1` the IC50 [3] was 12.4 µM (inactive).
For `COc1ccc(CCC(=O)Nc2c(-c3ccc(N(C)C)cc3)n[nH]c2O)cc1`, the IC50 [3] was > 73.5 µM (inactive).
For `C/C(=N\Nc1ccc(Cl)c(C(=O)O)c1)c1ccc(Br)s1`, the AC50 [8] was > 100 µM (inactive).
With `O=C(CC(=O)Nc1ccccc1[N+](=O)[O-])Nc1ccccc1[N+](=O)[O-]` the AC50 [8] was 32 µM (inactive).
In the case of `CCOC(=O)C1(CCc2ccccc2)CCN(Cc2ccc(OC)cc2)CC1`, the EC50 [1] is reported as 0.267 µM (active).
With `O=C(CCn1c2c(c3ccccc31)CCCC2)NNC(=O)c1ccc([N+](=O)[O-])cc1` the IC50 [2] was 1.8 µM (active).
